For one assay, the target named is T1, SIRT5 (Homo sapiens, UniProt Q9NXA8).
T1 sequence (Q9NXA8 37-310): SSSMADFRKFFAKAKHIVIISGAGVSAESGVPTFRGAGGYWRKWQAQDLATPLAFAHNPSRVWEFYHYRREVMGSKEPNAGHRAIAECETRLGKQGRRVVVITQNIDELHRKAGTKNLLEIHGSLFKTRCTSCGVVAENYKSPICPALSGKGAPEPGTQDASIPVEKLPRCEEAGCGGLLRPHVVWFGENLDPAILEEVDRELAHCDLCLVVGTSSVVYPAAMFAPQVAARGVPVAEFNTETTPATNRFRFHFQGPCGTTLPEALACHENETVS
To be noted: high and uncertain; maximum substrate concentration of 5 mM; read-out: Km estimate; cited from earlier work.

Assay [1] concerns the target T2, bovine pancreatic trypsin (Bos taurus, UniProt P00760).
T2 construct: purchased ENZO Life Sciences BML-KI105 or BML-KI176; host or cells: bovine pancreas
T2 sequence (P00760 24-246): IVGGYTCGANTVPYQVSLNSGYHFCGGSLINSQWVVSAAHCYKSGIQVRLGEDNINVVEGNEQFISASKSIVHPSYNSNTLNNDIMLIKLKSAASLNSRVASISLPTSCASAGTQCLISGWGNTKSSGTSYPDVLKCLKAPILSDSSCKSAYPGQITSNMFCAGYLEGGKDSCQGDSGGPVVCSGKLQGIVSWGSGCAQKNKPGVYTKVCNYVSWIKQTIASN
Nature of the assay: Trypsin release of AMC from lysyl-AMC compounds. It is filed as biochemical. To be noted: 1 μM compound, trypsin 2 mg/ml, room temperature. As to the method: FIG. 2 is a graph showing that trypsin treatment releases fluorescent AMC from Ac-Lys-AMC but not Ac-Lys(Succinyl)-AMC. Samples (100 μl) of 1 μM Ac-Lys-AMC and 1 μM Ac-Lys(Succinyl)-AMC in a buffered solution (50 mM Tris/HCl, pH 8.0, 137 mM NaCl, 2.7 mM KCl, 1 mM MgCl2) were treated with bovine pancreatic trypsin (2 mg/ml) for the indicated times at room temperature. Samples were in the wells of a 96-well, ½-area white microplate and fluorescence was measured at 1 min. intervals at the excitation and emission wavelengths for free AMC (Excitation: 360 nm; Emission: 460 nm) in a Synergy 2 microplate reading fluorimeter (BioTek), Gain 40. The data points at 0 min. represent the fluorescence of equivalent 1 μM Ac-Lys(Succ.)-AMC and 1 μM Ac-Lys-AMC samples in the absence of trypsin.
As noted in the Background of the Invention section above, the protease trypsin catalyzes the hydrolytic cleavage of amide bonds on the carboxyl side of unmodified lysine residues. Hydrolytic cleavage of lysyl amide bonds with AMC or rhodamine 110 (dye components of Compounds 1 and 2, respectively) releases the free amino forms of the dyes. This elicits an upward shift of the dye's fluorescence emission peak wavelength (bathochromic shift), for example to 460 nm for AMC or 530 nm for rhodamine 110. If succinylation of the ε-amino function of the lysine moieties in compounds such as 1 and 2 renders the amide bond between the carbonyl of lysine and the amino of dye groups such as AMC or rhodamine resistant to trypsin cleavage then, upon desuccinylation, the lysine/dye amide bond would become cleavable by trypsin. Note that removal of a single succinyl group from 2, followed by cleavage of the desuccinylated lysine would yield a compound with a single free amino function, Ac-K(Succ.)-R110. Monoamides of rhodamine 110 also have increased fluorescence emission at 530 nm relative to 2, although they are less fluorescent than rhodamine 110 itself (Liu et al., 1999). Thus, monitoring the fluorescence at the peak wavelength of the amino form of the dye would allow the desuccinylation reaction to be quantified. A schematic for such an assay is depicted for Compound 1 and SIRT5 in FIG. 1. Trypsin treatment (2 mg/ml) elicits an immediate increase in the fluorescence of a solution of Ac-Lys-AMC (Compound 6—FIG. 1) at the excitation and emission wavelengths of free AMC (Ex. 360 nm; Em. 460 nm), with maximum fluorescence achieved in 2 min. or less and ˜⅔ of that maximum occurring in 1 min. (FIG. 2).

*: point of attachment. AMC = Cc1cc(=O)oc2cc(N*)ccc12

What is called Km is the concentration of substrate that gives half-maximal velocity.

For “Ac-Arg-His-Lys-Lys(ε-acetyl)-AMC (Ac-RHKK(Ac)-{AMC}; SMILES CC(=O)NCCCC[C@H](NC(=O)[C@H](CCCCN)NC(=O)[C@H](Cc1c[nH]cn1)NC(=O)[C@H](CCCNC(=N)N)NC(C)=O)C(=O)Nc1ccc2c(C)cc(=O)oc2c1) [Ac-RHKK(Ac)-AMC, p53 peptide fluorogenic deacetylase substrate, Cat. # BML-KI177, reference compound]”, the Km with SIRT5 was 8.9 mM.

For `CC(=O)N[C@@H](CCCCNC(=O)CCC(=O)O)C(=O)Nc1ccc2c(C)cc(=O)oc2c1` [Compound 1, N—(N^α-acetyl-L-Lysine(N^ε-succinyl))-AMC], the figures for the “Trypsin cleavage / change in fluorescence” value in assay [1] and in assay [1] (listed as Ac-Lys(Succ.)-AMC) were “complete resistance to the trypsin cleavage” and “no change in fluorescence”, respectively.

These data come from patent publication US10920265B2, “Compounds and methods for detection of enzymes that remove methyl succinyl groups from epsilon-amino lysine moieties” (Enzo Life Sciences, Inc., priority 2011, dated 2021).
